Holding throughout (experiment): MIC and MBC testing, broth microdilution
The subject of assay [1] is P. aeruginosa ATCC 27853. The assay is classed as cell-based, Pseudomonas aeruginosa. Particulars: Pseudomonas aeruginosa; for MIC: ATCC27853, 18 h, read-out: MIC; for MBC: ATCC27853, read-out: MBC. The source says: (§1) The minimum inhibitory concentrations (MICs) and minimum bactericidal concentrations (MBCs) of the synthesized compounds effective against ESKAPE strains, S. aureus clinical isolates, and MRSA were investigated by the broth dilution method. Levofloxacin is a broad-spectrum antibacterial agent that is widely used in the treatment of ESKAPE infections. Therefore, levofloxacin was selected as the positive control for the preliminary activity screening. DMSO (0.1%) was selected as the negative control.
(§2) The minimum inhibitory concentration (MIC) of all synthesized compounds was tested by the broth microdilution method. In brief, compounds dissolved in DMSO were diluted twice continuously in a 96-well plate with MH broth. The ESKAPE pathogens (E. coli ATCC 25922, S. aureus ATCC 29213, K. pneumoniae ATCC 700603, A. baumannii ATCC 19606, P. aeruginosa ATCC 27853, and E. faecium ATCC 35667), clinical S. aureus isolates (LMY45, LMY46, LMY47, and LMY48) and methicillin-resistant Staphylococcus aureus (MRSA-1 and MRSA-2) were cultured in MH broth to logarithmic growth phase and then diluted to 1 × 10^6 CFU/mL in MH broth. Subsequently, the diluted bacterial solution was mixed with the diluted compound solution in a 96-well plate and incubated at 37 °C for a duration of 18 h. The MIC of the compounds was recorded as the lowest concentration at which no visible growth was observed. […] Each concentration was replicated thrice.

Assay [2] deals with E. faecium ATCC 35667. The assay is classed as cell-based, Enterococcus faecium. The following applies: Enterococcus faecium, ATCC35667, E. faecium ATCC 35667; for MIC: 18 h, read-out: MIC; for MBC: read-out: MBC.
Source text: as §1, §2

The subject of assay [3] is S. aureus ATCC 29213. The assay is classed as cell-based, Staphylococcus aureus. Particulars: Staphylococcus aureus, ATCC29213, S. aureus ATCC 29213; for MIC: 18 h, read-out: MIC; for MBC: read-out: MBC.
Source text: as §1, §2

The subject of assay [4] is A. baumannii ATCC 19606. The assay is classed as cell-based, Acinetobacter baumannii. Particulars: Acinetobacter baumannii; for MIC: ATCC19606, 18 h, read-out: MIC; for MBC: ATCC19606, read-out: MBC.
Source text: as §1, §2

In assay [5] the test system is K. pneumoniae ATCC 700603. The assay is classed as cell-based, Klebsiella pneumoniae. The following applies: Klebsiella pneumoniae; for MIC: ATCC700603, 18 h, read-out: MIC; for MBC: ATCC700603, read-out: MBC.
Source text: as §1, §2

Assay [6] relates to clinical S. aureus isolate LMY46. The assay is classed as cell-based, Staphylococcus aureus. Particulars: Staphylococcus aureus, LMY46; for MIC: 18 h, read-out: MIC; for MBC: read-out: MBC. As to the method: (§3) Furthermore, the MBC values of the compounds were detected.
as §2, with “h.” for “h. The MIC of the compounds was recorded as the lowest concentration at which no visible growth was observed.”

Assay [7] has as its system clinical S. aureus isolate LMY45. The assay is classed as cell-based, Staphylococcus aureus. The following applies: Staphylococcus aureus, LMY45; for MIC: 18 h, read-out: MIC; for MBC: read-out: MBC. As to the method:
as §3
as §2, with “h.” for “h. The MIC of the compounds was recorded as the lowest concentration at which no visible growth was observed.”

Assay [8] relates to clinical S. aureus isolate LMY47. The assay is classed as cell-based, Staphylococcus aureus. The following applies: Staphylococcus aureus, LMY47; for MIC: 18 h, read-out: MIC; for MBC: read-out: MBC. As to the method:
as §3
as §2, with “h.” for “h. The MIC of the compounds was recorded as the lowest concentration at which no visible growth was observed.”

Assay [9] relates to MRSA-2. The assay is classed as cell-based, Staphylococcus aureus. The following applies: Staphylococcus aureus, MRSA-2; for MIC: 18 h, read-out: MIC; for MBC: read-out: MBC. As to the method: as §3
as §2, with “h.” for “h. The MIC of the compounds was recorded as the lowest concentration at which no visible growth was observed.”

Assay [10] deals with MRSA-1. The assay is classed as cell-based, Staphylococcus aureus. Particulars: Staphylococcus aureus, MRSA-1; for MIC: 18 h, read-out: MIC; for MBC: read-out: MBC. As to the method:
as §3
as §2, with “h.” for “h. The MIC of the compounds was recorded as the lowest concentration at which no visible growth was observed.”

Assay [11] relates to clinical S. aureus isolate LMY48. The assay is classed as cell-based, Staphylococcus aureus. Particulars: Staphylococcus aureus, LMY48; for MIC: 18 h, read-out: MIC; for MBC: read-out: MBC. As to the method: as §3
as §2, with “h.” for “h. The MIC of the compounds was recorded as the lowest concentration at which no visible growth was observed.”

The subject of assay [12] is E. coli ATCC 25922. The assay is classed as cell-based, Escherichia coli. The following applies: Escherichia coli; for MIC: ATCC25922, 18 h, read-out: MIC; for MBC: ATCC25922, read-out: MBC.
Source text: as §1, §2

≈ marks a conversion by molar mass, not a printed value.

As for `[H]/N=C(\N)NN=C1CCCc2cc(OCc3cc(F)ccc3F)ccc21` [Compound 1E, (E)-2-(6-((2,5-difluorobenzyl)oxy)-3,4-dihydronaphthalen-1(2H)-ylidene)hydrazine-1-carboximidamide], the MIC (as a rule, the least concentration at which growth counts as inhibited) was above 32 µg/mL in assay [1]; 4 µg/mL (≈ 11.6 µM) in assay [2]; 2 µg/mL (≈ 5.81 µM) in assay [3]; 8 µg/mL (≈ 23.2 µM) in assay [4]; 32 µg/mL (≈ 92.9 µM) in [5]; 2 µg/mL (≈ 5.81 µM) in assay [6]. Further, the MIC came to 2 µg/mL (≈ 5.81 µM) in assay [7]; 2 µg/mL (≈ 5.81 µM) in assay [8]; 2 µg/mL (≈ 5.81 µM) in [9]; 2 µg/mL (≈ 5.81 µM) in assay [10]; 2 µg/mL (≈ 5.81 µM) in assay [11]; 8 µg/mL (≈ 23.2 µM) in assay [12]. The MBC – broadly, the smallest concentration meeting the test's criterion for killing – in assay [2] is 16 µg/mL (≈ 46.5 µM); in assay [3] it was 16 µg/mL (≈ 46.5 µM); in [4], 8 µg/mL (≈ 23.2 µM); in assay [5], 32 µg/mL (≈ 92.9 µM); in assay [6], 8 µg/mL (≈ 23.2 µM); in assay [7], 4 µg/mL (≈ 11.6 µM). The MBC was 8 µg/mL (≈ 23.2 µM) in [8]; 8 µg/mL (≈ 23.2 µM) in assay [9]; 32 µg/mL (≈ 92.9 µM) in assay [10]; 2 µg/mL (≈ 5.81 µM) in [11]; 8 µg/mL (≈ 23.2 µM) in assay [12].
As to `[H]/N=C(\N)NN=C1CCCc2cc(OCc3c(F)cccc3F)ccc21` [Compound 1F, (E)-2-(6-((2,6-difluorobenzyl)oxy)-3,4-dihydronaphthalen-1(2H)-ylidene)hydrazine-1-carboximidamide], the MIC in [1] was above 32 µg/mL; in [2], 8 µg/mL (≈ 23.2 µM); in [3], 4 µg/mL (≈ 11.6 µM); in assay [4], 16 µg/mL (≈ 46.5 µM); in assay [5], 32 µg/mL (≈ 92.9 µM); in assay [6] it was 4 µg/mL (≈ 11.6 µM). Also, the minimum inhibitory concentration (MIC) in assay [7] amounted to 4 µg/mL (≈ 11.6 µM); in [8], 4 µg/mL (≈ 11.6 µM); in [9], 4 µg/mL (≈ 11.6 µM); in assay [10] it was 4 µg/mL (≈ 11.6 µM); in assay [11] it was 4 µg/mL (≈ 11.6 µM); in assay [12] it was 16 µg/mL (≈ 46.5 µM). Moreover, the MBC is 16 µg/mL (≈ 46.5 µM) in assay [2]; 16 µg/mL (≈ 46.5 µM) in [3]; 16 µg/mL (≈ 46.5 µM) in [4]; 32 µg/mL (≈ 92.9 µM) in assay [5]; above 32 µg/mL in [6]; 8 µg/mL (≈ 23.2 µM) in assay [7]. In addition, the MBC in [8] was 8 µg/mL (≈ 23.2 µM); in assay [9], 16 µg/mL (≈ 46.5 µM); in [10], 32 µg/mL (≈ 92.9 µM); in [11] it was 16 µg/mL (≈ 46.5 µM); in assay [12] it was 16 µg/mL (≈ 46.5 µM).
As for `[H]/N=C(\N)NN=C1CCCc2cc(OCc3cc(F)cc(F)c3)ccc21` [Compound 1G, (E)-2-(6-((3,5-difluorobenzyl)oxy)-3,4-dihydronaphthalen-1(2H)-ylidene)hydrazine-1-carboximidamide], the MIC in assay [1] was determined as 32 µg/mL (≈ 92.9 µM); in [2], 4 µg/mL (≈ 11.6 µM); in [3], 2 µg/mL (≈ 5.81 µM); in assay [4], 8 µg/mL (≈ 23.2 µM); in assay [5], 16 µg/mL (≈ 46.5 µM); in [6], 2 µg/mL (≈ 5.81 µM). For the same compound, the MIC was 2 µg/mL (≈ 5.81 µM) in assay [7]; 2 µg/mL (≈ 5.81 µM) in assay [8]; 2 µg/mL (≈ 5.81 µM) in assay [9]; 2 µg/mL (≈ 5.81 µM) in assay [10]; 2 µg/mL (≈ 5.81 µM) in assay [11]; 8 µg/mL (≈ 23.2 µM) in [12]. The MBC in assay [2] was found to be 8 µg/mL (≈ 23.2 µM); in assay [3] it was 8 µg/mL (≈ 23.2 µM); in assay [4], 8 µg/mL (≈ 23.2 µM); in assay [5] it was 16 µg/mL (≈ 46.5 µM); in [6], 8 µg/mL (≈ 23.2 µM); in assay [7], 4 µg/mL (≈ 11.6 µM). The MBC in assay [8] is 8 µg/mL (≈ 23.2 µM); in [9], 16 µg/mL (≈ 46.5 µM); in assay [10], 16 µg/mL (≈ 46.5 µM); in [11], 2 µg/mL (≈ 5.81 µM); in assay [12], 16 µg/mL (≈ 46.5 µM).
For the compound `[H]/N=C(\N)NN=C1CCCc2cc(OCc3ccc(F)c(F)c3)ccc21` [Compound 1H, (E)-2-(6-((3,4-difluorobenzyl)oxy)-3,4-dihydronaphthalen-1(2H)-ylidene)hydrazine-1-carboximidamide], the MIC in assay [1] came to 32 µg/mL (≈ 92.9 µM); in [2], 4 µg/mL (≈ 11.6 µM); in [3], 2 µg/mL (≈ 5.81 µM); in assay [4], 8 µg/mL (≈ 23.2 µM); in assay [5], 16 µg/mL (≈ 46.5 µM); in assay [6], 2 µg/mL (≈ 5.81 µM). For the same compound, the MIC in assay [7] is 2 µg/mL (≈ 5.81 µM); in [8], 2 µg/mL (≈ 5.81 µM); in [9], 2 µg/mL (≈ 5.81 µM); in [10], 2 µg/mL (≈ 5.81 µM); in assay [11], 2 µg/mL (≈ 5.81 µM); in [12], 4 µg/mL (≈ 11.6 µM). In addition, the minimum bactericidal concentration (MBC) was 32 µg/mL (≈ 92.9 µM) in assay [1]; 16 µg/mL (≈ 46.5 µM) in assay [2]; 8 µg/mL (≈ 23.2 µM) in [3]; 8 µg/mL (≈ 23.2 µM) in assay [4]; 32 µg/mL (≈ 92.9 µM) in assay [5]; above 32 µg/mL in [6]. Moreover, the MBC in [7] was found to be 4 µg/mL (≈ 11.6 µM); in assay [8] it was 8 µg/mL (≈ 23.2 µM); in assay [9] it was 8 µg/mL (≈ 23.2 µM); in assay [10], 32 µg/mL (≈ 92.9 µM); in assay [11], 4 µg/mL (≈ 11.6 µM); in [12] it was 16 µg/mL (≈ 46.5 µM).
For the compound `[H]/N=C(\N)NN=C1CCCc2cc(OCc3cccc(C(F)(F)F)c3)ccc21` [Compound 1I, (E)-2-(6-((3-(trifluoromethyl)benzyl)oxy)-3,4-dihydronaphthalen-1(2H)-ylidene)hydrazine-1-carboximidamide], the MIC in assay [1] worked out at 32 µg/mL (≈ 85 µM); in assay [2] it was 4 µg/mL (≈ 10.6 µM); in assay [3] it was 2 µg/mL (≈ 5.31 µM); in assay [4] it was 8 µg/mL (≈ 21.3 µM); in assay [5], 32 µg/mL (≈ 85 µM); in assay [6] it was 2 µg/mL (≈ 5.31 µM). The MIC in [7] was determined as 1 µg/mL (≈ 2.66 µM); in assay [8] it was 2 µg/mL (≈ 5.31 µM); in assay [9], 2 µg/mL (≈ 5.31 µM); in assay [10] it was 2 µg/mL (≈ 5.31 µM); in assay [11], 2 µg/mL (≈ 5.31 µM); in [12], 4 µg/mL (≈ 10.6 µM). In addition, the MBC was 32 µg/mL (≈ 85 µM) in [1]; 8 µg/mL (≈ 21.3 µM) in [2]; 16 µg/mL (≈ 42.5 µM) in assay [3]; 8 µg/mL (≈ 21.3 µM) in assay [4]; 32 µg/mL (≈ 85 µM) in assay [5]; 4 µg/mL (≈ 10.6 µM) in assay [6]. The MBC in assay [7] worked out at 4 µg/mL (≈ 10.6 µM); in assay [8], 2 µg/mL (≈ 5.31 µM); in assay [9], 4 µg/mL (≈ 10.6 µM); in assay [10], 16 µg/mL (≈ 42.5 µM); in assay [11], 2 µg/mL (≈ 5.31 µM); in [12] it was 4 µg/mL (≈ 10.6 µM).

(Values after publication PMC12250302, “Synthesis, Antimicrobial Activities, and Model of Action of Novel Tetralone Derivatives Containing Aminoguanidinium Moiety” (International Journal of Molecular Sciences, 2025).)
